Data on three substances can be found in paper PMC2992351 (ACS medicinal chemistry letters, 2010).

The assay concerns the target Grb2 SH2 domain (Homo sapiens, UniProt P62993). Put plainly: Isothermal titration calorimetry. The class given is binding. The conditions noted are these: for Ka / ΔG^o / ΔH^o / ΔS^o / −TΔS^o: ITC at 298 K, average of at least two experiments; for Ka: association constant.

Grb2 SH2 domain, sequence (P62993 60-152 limits assumed): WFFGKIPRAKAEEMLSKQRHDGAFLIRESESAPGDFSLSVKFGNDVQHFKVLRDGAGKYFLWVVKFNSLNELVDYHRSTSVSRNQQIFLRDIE

With pYVNG (head to tail) [compound 1], the Ka entry is given as “(4.7 ± 0.11) × 10^4 M^−1”, the “ΔG^o” value was -6.4 ± 0.01 kcal/mol, the “ΔH^o” value is -3.5 ± 0.26 kcal/mol and the “ΔS^o” value is 9.8 ± 0.20 cal mol^−1K^−1. Also, the “−TΔS^o” value is -2.9 ± 0.06 kcal/mol. Also, the “fold lower affinity than acyclic control 4” value (ITC, macrocycle vs its acyclic control) is listed as “about 10 fold”.

pYVNV (head to tail) [compound 2]: the Ka result is given as “(2.3 ± 0.21) × 10^6 M^−1”, the “ΔG^o” value was -8.7 ± 0.06 kcal/mol, the “ΔH^o” value was -4.3 ± 0.32 kcal/mol and the “ΔS^o” value is 14.8 ± 0.54 cal mol^−1K^−1. Moreover, the “−TΔS^o” value is -4.4 ± 0.16 kcal/mol.

pYVNVP (head to tail) [compound 7]: the Ka entry was “(1.0 ± 0.20) × 10^7 M^−1”, the “ΔG^o” value is -9.6 ± 0.09 kcal/mol, the “ΔH^o” value was -4.3 ± 0.57 kcal/mol and the “ΔS^o” value is on record as 17.7 ± 1.20 cal mol^−1K^−1. The “−TΔS^o” value was -5.3 ± 0.36 kcal/mol. For the same substance, under “ITC, 7 vs 8”, the “difference in binding enthalpies of 7 and 8” value was 2 kcal/mol. Under “ITC, macrocycle 7 vs linear control 8”, the “fold greater affinity than linear control 8” value is reported as “about two-fold”.
